# Experimental data taken from EP0017102A1, “Composition containing a phenyl benzoic acid compound and acetaminophen combination for the treatment of pain and inflammation and process for preparing the same” (Merck & Co., Inc., priority 1979, dated 1980).
# Assays:
# [1] = test system: adjuvant arthritis induced in rats; test: adjuvant arthritis analgesic bioassay (tail pinch / foot bend squeak response); format: in vivo, Sprague-Dawley rats
# Excerpt: Since analgesic tests using intact animals are not sensitive enough to detect the analgesic activity of nonsteroidal anti-inflammatory compounds, the analgesic bioassay employed utilized inflammatory sensitization procedures, specifically adjuvant arthritis. Adjuvant arthritis induced in rats, the animals used in the bioassay, resembles rheumatoid arthritis in man with respect to the manifestation of inflammation and hyperalgesia. When the affected joints of rats with adjuvant arthritis are subjected to a gentle manipulation, preferably by extending the joint, the rats respond by squeaking, which is a definite and reproducible sign of algesia. The ability of the tested compounds to suppress this squeaking response was an accurate measure of the analgesic activity of the tested compounds.
# In accordance with the adjuvant arthritis bioassay used to evaluate the analgesic activity of the combinations of compounds of the present invention, young adult Sprague-Dawley rats of either sex are rendered hyperalgesic by injection of dessicated Mycobacterium- butyricum suspended in light mineral oil (Freund's adjuvant). The mycobacteria are ground in a mortar, suspended in the oil, and sterilized in an autoclave. Each animal receives 0.5 mg of the bacteria in 0.1 ml of oil, injected subcutaneously through a 21-gauge needle into the distal third of the tail.
# The animals can subsequently be used in two ways for testing the analgesic action of drugs. The day after the injection of adjuvant, the tail is found to be sensitive to touch. Approximately 16 hours after the injection, the experimenter tests the animals for the presence of hyperalgesia. This is done by holding the animal in one hand. With the thumb and forefinger of the other hand, the observer applies gentle pressure to the tail about 2.5 cm proximal to the point where the needle has been inserted. This gentle pressure is repeated at 5-sec intervals. If the rat endures five such gentle presses without emitting more than one "squeak", analgesia is considered to be present and a score of + is assigned. Two or more squeaks earns a rating of 0, or no analgesia. Before being assigned to an experiment, animals are screened and only those with the 0 rating are used.
# The hyperalgesic animals are assigned randomly to drug treatments and one of the treatments is always the vehicle without the drug (placebo group). […] […] This entire procedure may be referred to as "tail pinch" .technique. Alternatively, an apparatus for applying pressure to the tail may be employed and the "squeak threshold" determined before and after drug.
# The adjuvant-injected animals, if left undisturbed, develop severe arthritis which becomes especially manifest in about two weeks. […] This "foot bend" technique yields drug responses essentially identical with those obtained by the "tail pinch" procedure.
# For a further description of this bioassay and its significance, reference is made to Kuzuma and Kawai, "Evaluation of Analgesic Agents in Rats with Adjuvant Arthritis", Chem. Pharm. Bull., 23 (6) 1184-1191 (1975).
# [2] = test system: female albino mice (Carworth CF-1); test: in vivo; format: in vivo; settings: Group I: Diflunisal 400 mg./kg. (100 %LD50) alone; oral; 20 tested; 14 days
# Description: Measurements of the relative safety of the components and of the combination were carried out using acute oral toxicity studies in female mice. Randomly selected female albino mice (Carworth CF-1) weighing from 18 to 24 grams, and 6 to 7 weeks old, were used. The LD50 value for each drug was estimated from acute oral dose-response curves previously established. The following dose regimen was utilized:
# The preparations were administered by gastric intubation using a metal catheter attached to a springe. The various doses were administered randomly with 20 mice per group. Food was withheld one to two hours before and three hours following drug treatment. Water was available at all times. […] Body weights were taken pretest and on days 7 and 14.
compound,measurement,setting,value
"O=C(O)c1cc(-c2ccc(F)cc2F)ccc1O [Diflunisal, 2-hydroxy-5-(2',4'-difluorophenyl)benzoic acid]",Number of Rats with Analgesia,"[1]; 1/2 h after administration, dose 5 mg./kg., 8 rats per dose",0
same,Number of Rats with Analgesia,"[1]; 1/2 h after administration, dose 10 mg./kg., 8 rats per dose",0
same,Percent of Rats with Analgesia Diflunisal Alone,"[1]; 1 Hrs. after drug, Diflunisal 4 mg./kg., 8 rats per dose",0%
same,Percent of Rats with Analgesia Diflunisal Alone,"[1]; 1 Hrs. after drug, Diflunisal 4 mg./kg., 10 rats per dose",0%
same,Percent of Rats with Analgesia Diflunisal Alone,"[1]; 1 Hrs. after drug, Diflunisal 8 mg./kg., 8 rats per dose",0%
same,Percent of Rats with Analgesia Diflunisal Alone,"[1]; 1 Hrs. after drug, Diflunisal 10 mg./kg., 8 rats per dose",0%
same,Percent of Rats with Analgesia Diflunisal Alone,"[1]; 1 Hrs. after drug, Diflunisal 16 mg./kg., 8 rats per dose",0%
same,Percent of Rats with Analgesia Diflunisal Alone,"[1]; 2 Hrs. after drug, Diflunisal 2 mg./kg., 10 rats per dose",20%
same,Percent of Rats with Analgesia Diflunisal Alone,"[1]; 3 Hrs. after drug, Diflunisal 4 mg./kg., 10 rats per dose",0%
same,Percent of Rats with Analgesia Diflunisal Alone,"[1]; 3 Hrs. after drug, Diflunisal 5 mg./kg., 8 rats per dose",25%
same,Percent of Rats with Analgesia Diflunisal Alone,"[1]; 3 Hrs. after drug, Diflunisal 8 mg./kg., 10 rats per dose",50%
same,Percent of Rats with Analgesia Diflunisal Alone,"[1]; 4 Hrs. after drug, Diflunisal 2 mg./kg., 10 rats per dose",0%
same,Percent of Rats with Analgesia Diflunisal Alone,"[1]; 4 Hrs. after drug, Diflunisal 4 mg./kg., 10 rats per dose",0%
same,Percent of Rats with Analgesia Diflunisal Alone,"[1]; 4 Hrs. after drug, Diflunisal 5 mg./kg., 8 rats per dose",10%
same,Percent of Rats with Analgesia Diflunisal Alone,"[1]; 4 Hrs. after drug, Diflunisal 8 mg./kg., 10 rats per dose",30%
same,Percent of Rats with Analgesia Diflunisal Alone,"[1]; 5 Hrs. after drug, Diflunisal 5 mg./kg., 8 rats per dose",0%
same,Percent of Rats with Analgesia Diflunisal Alone,"[1]; 5 Hrs. after drug, Diflunisal 8 mg./kg., 8 rats per dose",0%
same,Percent of Rats with Analgesia Diflunisal Alone,"[1]; 6 Hrs. after drug, Diflunisal 8 mg./kg., 8 rats per dose",0%
same,Percent of Rats with Analgesia Diflunisal Alone,"[1]; 6 Hrs. after drug, Diflunisal 10 mg./kg., 8 rats per dose",0%
same,Number of Rats with Analgesia,"[1]; 1 h after administration, dose 2 mg./kg., 10 rats per dose",2
same,Number of Rats with Analgesia,"[1]; 1 h after administration, dose 4 mg./kg., 8 rats per dose",0
same,Number of Rats with Analgesia,"[1]; 1 h after administration, dose 4 mg./kg., 10 rats per dose",0
same,Number of Rats with Analgesia,"[1]; 1 h after administration, dose 5 mg./kg., 8 rats per dose",0
same,Number of Rats with Analgesia,"[1]; 1 h after administration, dose 8 mg./kg., 8 rats per dose",0
same,Number of Rats with Analgesia,"[1]; 1 h after administration, dose 8 mg./kg., 10 rats per dose",4
same,Number of Rats with Analgesia,"[1]; 1 h after administration, dose 10 mg./kg., 8 rats per dose",0
same,Number of Rats with Analgesia,"[1]; 1 h after administration, dose 16 mg./kg., 8 rats per dose",0
same,Number of Rats with Analgesia,"[1]; 1 h after administration, dose 20 mg./kg., 8 rats per dose",1
same,Number of Rats with Analgesia,"[1]; 2 h after administration, dose 2 mg./kg., 10 rats per dose",2
same,Number of Rats with Analgesia,"[1]; 2 h after administration, dose 4 mg./kg., 8 rats per dose",2
same,Number of Rats with Analgesia,"[1]; 2 h after administration, dose 4 mg./kg., 10 rats per dose",1
same,Number of Rats with Analgesia,"[1]; 2 h after administration, dose 5 mg./kg., 8 rats per dose",1
same,Number of Rats with Analgesia,"[1]; 2 h after administration, dose 8 mg./kg., 8 rats per dose",1
same,Number of Rats with Analgesia,"[1]; 2 h after administration, dose 8 mg./kg., 10 rats per dose",4
same,Number of Rats with Analgesia,"[1]; 2 h after administration, dose 10 mg./kg., 8 rats per dose",1
same,Number of Rats with Analgesia,"[1]; 2 h after administration, dose 16 mg./kg., 8 rats per dose",4
same,Number of Rats with Analgesia,"[1]; 2 h after administration, dose 20 mg./kg., 8 rats per dose",4
same,Number of Rats with Analgesia,"[1]; 3 h after administration, dose 2 mg./kg., 10 rats per dose",2
same,Number of Rats with Analgesia,"[1]; 3 h after administration, dose 4 mg./kg., 8 rats per dose",1
same,Number of Rats with Analgesia,"[1]; 3 h after administration, dose 4 mg./kg., 10 rats per dose",0
same,Number of Rats with Analgesia,"[1]; 3 h after administration, dose 5 mg./kg., 8 rats per dose",2
same,Number of Rats with Analgesia,"[1]; 3 h after administration, dose 8 mg./kg., 8 rats per dose",3
same,Number of Rats with Analgesia,"[1]; 3 h after administration, dose 8 mg./kg., 10 rats per dose",5
same,Number of Rats with Analgesia,"[1]; 3 h after administration, dose 10 mg./kg., 8 rats per dose",4
same,Number of Rats with Analgesia,"[1]; 3 h after administration, dose 16 mg./kg., 8 rats per dose",6
same,Number of Rats with Analgesia,"[1]; 3 h after administration, dose 20 mg./kg., 8 rats per dose",7
same,Number of Rats with Analgesia,"[1]; 4 h after administration, dose 2 mg./kg., 10 rats per dose",0
same,Number of Rats with Analgesia,"[1]; 4 h after administration, dose 4 mg./kg., 8 rats per dose",0
same,Number of Rats with Analgesia,"[1]; 4 h after administration, dose 4 mg./kg., 10 rats per dose",0
same,Number of Rats with Analgesia,"[1]; 4 h after administration, dose 5 mg./kg., 8 rats per dose",1
same,Number of Rats with Analgesia,"[1]; 4 h after administration, dose 8 mg./kg., 8 rats per dose",1
same,Number of Rats with Analgesia,"[1]; 4 h after administration, dose 8 mg./kg., 10 rats per dose",3
same,Number of Rats with Analgesia,"[1]; 4 h after administration, dose 10 mg./kg., 8 rats per dose",4
same,Number of Rats with Analgesia,"[1]; 4 h after administration, dose 16 mg./kg., 8 rats per dose",3
same,Number of Rats with Analgesia,"[1]; 4 h after administration, dose 20 mg./kg., 8 rats per dose",7
same,Number of Rats with Analgesia,"[1]; 5 h after administration, dose 2 mg./kg., 10 rats per dose",0
same,Number of Rats with Analgesia,"[1]; 5 h after administration, dose 4 mg./kg., 8 rats per dose",0
same,Number of Rats with Analgesia,"[1]; 5 h after administration, dose 4 mg./kg., 10 rats per dose",1
same,Number of Rats with Analgesia,"[1]; 5 h after administration, dose 5 mg./kg., 8 rats per dose",0
same,Number of Rats with Analgesia,"[1]; 5 h after administration, dose 8 mg./kg., 8 rats per dose",0
same,Number of Rats with Analgesia,"[1]; 5 h after administration, dose 8 mg./kg., 10 rats per dose",2
same,Number of Rats with Analgesia,"[1]; 5 h after administration, dose 10 mg./kg., 8 rats per dose",2
same,Number of Rats with Analgesia,"[1]; 5 h after administration, dose 16 mg./kg., 8 rats per dose",2
same,Number of Rats with Analgesia,"[1]; 5 h after administration, dose 20 mg./kg., 8 rats per dose",5
same,Number of Rats with Analgesia,"[1]; 6 h after administration, dose 2 mg./kg., 10 rats per dose",0
same,Number of Rats with Analgesia,"[1]; 6 h after administration, dose 4 mg./kg., 8 rats per dose",0
same,Number of Rats with Analgesia,"[1]; 6 h after administration, dose 4 mg./kg., 10 rats per dose",0
same,Number of Rats with Analgesia,"[1]; 6 h after administration, dose 5 mg./kg., 8 rats per dose",0
same,Number of Rats with Analgesia,"[1]; 6 h after administration, dose 8 mg./kg., 8 rats per dose",0
same,Number of Rats with Analgesia,"[1]; 6 h after administration, dose 8 mg./kg., 10 rats per dose",1
same,Number of Rats with Analgesia,"[1]; 6 h after administration, dose 10 mg./kg., 8 rats per dose",0
same,Number of Rats with Analgesia,"[1]; 6 h after administration, dose 16 mg./kg., 8 rats per dose",1
same,Number of Rats with Analgesia,"[1]; 6 h after administration, dose 20 mg./kg., 8 rats per dose",4
same,Total Positives,"[1]; sum over 1/2, 1 and 2 h, dose 5 mg./kg., 8 rats per dose",1
same,Total Positives,"[1]; sum over 1/2, 1 and 2 h, dose 10 mg./kg., 8 rats per dose",1
same,Total Positives,"[1]; sum over 1 and 2 h, dose 4 mg./kg., 10 rats per dose",1
same,No. Dead,[2],14
